Source: PubChem BioAssay (NCI)
Several values for one entry are separate records, joined by “and”; a condition that tells them apart may be missing. Identical values can stand only once.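 Compound exposure: 48 hours, 5 concentrations, 96-well plates. Here, GI50 denotes the concentration required for 50% inhibition of growth. At the TGI there is no net growth.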

What was measured:
Test in all cases: NCI-60 cell line screen, 48 h
CAKI-1 renal = test system: CAKI-1 renal
786-0 renal = test system: 786-0 renal
SK-OV-3 ovarian = test system: SK-OV-3 ovarian
ACHN renal = test system: ACHN renal
NCI-H522 lung = test system: NCI-H522 lung
OVCAR-4 ovarian = test system: OVCAR-4 ovarian
TK-10 renal = test system: TK-10 renal
SF-268 CNS = test system: SF-268 CNS
SNB-19 CNS = test system: SNB-19 CNS
M19-MEL melanoma = test system: M19-MEL melanoma

SMILES | TGI (CAKI-1 renal) | TGI (786-0 renal) [µM] | TGI (SK-OV-3 ovarian) | TGI (ACHN renal) [µM] | TGI (NCI-H522 lung) | TGI (OVCAR-4 ovarian) | TGI (TK-10 renal) [µM] | TGI (SF-268 CNS) | TGI (SNB-19 CNS) | TGI (M19-MEL melanoma) | GI50 (M19-MEL melanoma) [µM] | GI50 (NCI-H522 lung) | GI50 (CAKI-1 renal) [µM] | GI50 (SK-OV-3 ovarian) [µM] | GI50 (ACHN renal) [µM] | GI50 (OVCAR-4 ovarian) [µM] | GI50 (TK-10 renal) [µM] | GI50 (SF-268 CNS) [µM] | GI50 (SNB-19 CNS) [µM]
CCCCCCNC(=O)c1cnc(Cl)cn1 | 2.39 µM | > 100 | 66 µM | 8.49 | 0.552 µM | 47.9 µM | > 100 | 31.4 µM | 43.7 µM | – | – | – | – | – | – | – | – | – | –
NC(N)=N/N=C/c1c(-c2ccccc2)nc2n1ccc1nc(-c3ccccc3)c(/C=N/N=C(N)N)n12 | > 100 µM | > 100 | > 100 µM | > 100 | > 100 µM | > 100 µM | > 100 | > 100 µM | > 100 µM | – | – | – | – | – | – | – | – | – | –
CN(C)CCCNc1ccc2ncn3c4ccccc4c(=O)c1c23 | – | 33.2 | > 100 µM | 52.5 | > 100 µM | 97.1 µM | 69.7 | 40.4 µM | > 100 µM | 30.6 µM | – | – | – | – | – | – | – | – | –
CC12CCC(C(=O)OC1=O)C(C)(C)O2 (configuration not stated) | > 100 µM | – | > 100 µM | > 100 | > 100 µM | > 100 µM | > 100 | > 100 µM | > 100 µM | – | – | – | – | – | – | – | – | – | –
O=NC1C(Cl)C2CC1C1C(Br)C(Br)CC21 (configuration not stated) | > 100 µM | > 100 | > 100 µM | > 100 | > 100 µM | > 100 µM | > 100 | > 100 µM | > 100 µM | – | – | – | – | – | – | – | – | – | –
CC(=O)C(O)N1C(=O)C=CC1=O (configuration not stated) | – | – | – | – | – | – | – | 17.9 µM and 51.8 µM | – | 30.4 µM and 17.6 µM | 16.4 | > 25 µM and 13.5 µM | – | – | – | – | – | – | –
C[C@@H]1CC[C@H]2C(COCCOCC3=C(C(F)(F)F)O[C@@H]4O[C@@]5(C)CC[C@H]6[C@H](C)CC[C@@H]3[C@@]46OO5)=C(C(F)(F)F)O[C@@H]3O[C@@]4(C)CC[C@@H]1[C@]32OO4 | > 12.9 µM | > 100 | > 100 µM | > 10.3 | > 100 µM | > 100 µM | > 100 | > 100 µM | > 100 µM | – | – | 2.9 µM | 0.304 | > 31.5 | 0.0797 | > 100 | 0.0557 | 0.0602 | –
CN(C)c1ccc(/C=N\NC(=O)CSCC(=O)N/N=C/c2ccc(N(C)C)cc2)cc1 | > 100 µM | > 100 | > 100 µM | > 100 | > 100 µM | > 100 µM | > 100 | > 100 µM | > 100 µM | – | – | – | – | – | – | – | – | – | –
COc1ccc([C@@H]2ON(C)[C@H]3CN(C)C(=O)[C@@H]23)cc1 | > 100 µM | – | > 100 µM | > 100 | > 100 µM | > 100 µM | > 100 | – | > 100 µM | – | – | – | – | – | – | – | – | – | –
Cc1ccccc1N=Nc1ccc(N=Nc2c(O)ccc3ccccc23)c(C)c1 | > 100 µM | > 100 | > 100 µM | > 100 | > 100 µM | > 100 µM | > 100 | > 100 µM | > 100 µM | – | – | – | – | – | – | – | – | – | –
C/C=C/[P+](c1ccccc1)(c1ccccc1)c1ccccc1 | > 100 µM | 37.6 | 10.5 µM | 62.5 | 10.2 µM | 25.4 µM | 20.3 | 17.1 µM | 15 µM | – | – | – | – | – | – | – | – | – | –
CC1C(O)C2(Oc3cc4c(c5c3[C@@H](CC5O)[C@H]2C)CCC2Cc3nc5c(nc3C[C@@]42C)CC2CCC3C4=C[C@H]6O[C@@]7(O[C@@](C)(CO)C[C@@H]7O)C(C)[C@@]6(O)[C@]4(C)[C@@H](O)CC3[C@]2(C)C5)OC1(C)C (some centres not stated) | 0.975 µM | – | 0.502 µM | – | 0.42 µM | > 3.67 µM | – | 0.641 µM | – | > 3.67 µM | – | – | – | – | – | – | – | – | –
COc1ccc(N2C(=O)C3c4[nH]c5c(C)cccc5c4C4CCC(C(C)(C)C)CC4C3C2=O)cc1 (configuration not stated) | > 10 µM | – | > 10 µM | > 10 | > 10 µM | > 10 µM | > 10 | > 10 µM | > 10 µM | – | – | – | – | – | – | – | – | – | –
CC1=C2C(=O)c3ccccc3C(=O)[C@H]2[C@H]2CCO[C@H]2O1 | 46 µM | 37.8 | > 100 µM | 45.5 | 32 µM | 37.4 µM | 67 | 35.1 µM | > 100 µM | – | – | – | – | – | – | – | – | – | –
Cc1ccc(S(=O)(=O)NCCSCCNS(=O)(=O)c2ccc(C)cc2)cc1 | – | – | > 100 µM | > 100 | > 100 µM | > 100 µM | > 100 | > 100 µM | > 100 µM | – | – | – | – | – | – | – | – | – | –
O=c1ccc2cc(O)c(O)cc2o1 | > 100 µM | > 100 | > 100 µM | > 100 | > 100 µM | > 100 µM | > 100 | > 100 µM | > 100 µM | – | – | – | – | – | – | – | – | – | –
COc1ccc(-c2c3c(nc4nc(SCCc5ccccc5)nc(N)c24)CCCC3)cc1OC | > 100 µM | – | > 100 µM | > 100 | – | > 100 µM | > 100 | > 100 µM | > 100 µM | – | – | – | – | – | – | – | – | – | –
Cc1c2cc[n+](CCN3CCCCC3)cc2c(C)c2c1[nH]c1ccc(O)cc12 | 24.3 µM and > 100 µM | 21.6 | 33.9 µM and 31.2 µM | 22.9 | 53.5 µM and 16.2 µM | 7.39 µM and 24.6 µM | > 57.6 | 29.6 µM and 25.7 µM | 10.2 µM and 29.1 µM | 4.93 µM | – | – | 21.1 | 4.42 | – | 2.98 | – | 2.29 | 1.96
CCCCCCCSc1nc2c(C(=O)OCC)ncn2c2ccccc12 | – | – | > 100 µM | > 100 | – | – | > 100 | > 100 µM | – | > 100 µM | – | – | – | – | – | – | – | – | –
CN(C)CCNc1nc(-c2ccc3ccccc3c2)nc2nc[nH]c12 | 20.6 µM | 32.1 | 20.8 µM | 11.9 | 6.22 µM | 23.8 µM | 19.4 | 25.1 µM | 28.1 µM | – | – | – | – | – | – | – | – | – | –
CN1CCCCC1CCN1CCCCC1 (configuration not stated) | > 100 µM | > 100 | > 100 µM | > 100 | > 100 µM | > 100 µM | > 100 | > 100 µM | > 100 µM | – | – | – | – | – | – | – | – | – | –
